Assay results: patent US20180353398A1, “HAIR CARE REGIMEN USING NA AEROSOL FOAM CONCENTRATED CONDITIONER” (The Procter & Gamble Company, priority 2015, published 2018)
Counter-ions that a name gives are not always drawn.

Test: Kinematic viscosity of shampoo base formulation with viscosity reducing agent (calibrated viscometers)
Format: physicochemical
Conditions: lowest of 2-8% agent in base formulation, 40° C.
Source text: Now referring to Tables 11 and 12, the base formulations were made by mixing 1.6% perfume, 24% linear sodium undecyl sulfate (CAS# 1072-24-8) active, 6% lauramidopropyl betaine (CAS# 4292-10-8) active and 60.4% deionized water which leaves 8% unfilled for the addition of a viscosity reducing agent (the balance being filled in by distilled water). For all compositions, the surfactant, water and additives including viscosity reducing agents were expected to be in a single phase.
The agents from Tables 11 and 12 were added to the base formulation at a percentage of 2%, 4%, 6%, and 8% into the above surfactant solution. The subsequent formulations were vortexed and put into oven at 60° C. overnight to form homogeneous solution. The viscosities of the formulations were measured with calibrated viscometers (Size 200/350/450) from Cannon Instrument Company (2139 High Tech Road, State College, Pa., USA, 16803).
After the equilibration, the formulations were drawn to reach the starting mark with a rubber suction bulb and the flow time between the starting mark and end mark was recorded for calculation. Each formulation was measured three times to calculate average and standard deviation. Between samples, viscometer was cleaned with water and acetone to rinse off residual.
Viscosity values in Table 11 and Table 12 were calculated based on the equation:
Viscosity (mm^2/s. (cSt))=Time (s)*Constant (mm^2/s^2. (cSt/s))
The time in the above equation is the flow time recorded in the experiment and the constant numbers for each calibrated viscometer were obtained from the manuals.

Row | SMILES | Lowest viscosity achieved (cSt)
1 | CC(C)CC=C(C=O)C(C)C [2-Isopropyl-5-methyl-2-hexenal] | 332 cSt
2 | COC(C)(C)C1CC=C(C)CC1 (stereo not shown) [Orange Flower Ether] | 419 cSt
3 | C=C(C)[C@H]1CC=C(C)CC1 [Limonene] | 86 cSt
4 | CCOC(=O)CC(O)(CC(=O)OCC)C(=O)OCC [Triethyl Citrate] | 41 cSt
5 | CC1=CCC(C(C)C)=CC1 [gamma-Terpinene] | 32 cSt
6 | CCCCCCCCCCCCCC(=O)OC(C)C [Iso Propyl Myristate] | 30 cSt
7 | CCC(CC(C)CC)=NO (stereo not shown) [5-Methyl-3-Heptanone Oxime] | 246 cSt
8 | CC12CCC(CC1)C(C)(C)O2 [Eucalyptol] | 203 cSt
9 | CCC(=O)OC1CC2CC1C1CC=CC21 (stereo not shown) [Cyclaprop] | 404 cSt
10 | CC(C)CCOC(=O)c1ccccc1O [Isoamyl Salicylate] | 193 cSt
11 | CCCCCCCC(OC)OC [1,1-Dimethoxyoctane] | 308 cSt
12 | CC12CCC(CC1=O)C2(C)C (stereo not shown) [Camphor Gum] | 127 cSt
13 | C=C(C)[C@H]1CC=C(C)CC1 [Dipentene] | 35 cSt
14 | C=CC(C)(CCC=C(C)C)OC(=O)C(C)C (stereo not shown) [Linalyl Iso Butyrate] | 38 cSt
15 | CC(=O)OCCC(C)CCCC(C)C (stereo not shown) [3,7-Dimethyloctyl Acetate] | 446 cSt
16 | CCO [Ethanol] | 29 cSt
17 | CCCCCC(=O)OCC(C)C [Isobutyl Hexanoate] | 109 cSt
18 | CC(CC=O)CCCC(C)(C)O (stereo not shown) [Hydroxycitronellal] | 34 cSt
19 | CC(C)COC(=O)c1ccccc1O [Iso Butyl Salicylate] | 409 cSt
20 | CC(=O)OCCC(C)CCC=C(C)C (stereo not shown) [Citronellyl Acetate] | 363 cSt
21 | CCCCCCC1C(=O)CCC1C(=O)OC (stereo not shown) [Dihyro Iso Jasmonate] | 119 cSt
22 | CCCCOC(=O)c1ccccc1O [Butyl Salicylate] | 368 cSt
23 | CC(C)=CCC/C(C)=C/COC(=O)Cc1ccccc1 [Geranyl Phenyl Acetate] | 34 cSt
24 | CCC(=O)O[C@@H]1C[C@H]2CC[C@]1(C)C2(C)C (racemic) [Iso Bornyl Propionate] | 463 cSt
25 | CCCCCC1(C)CCC(C)(C)C1=O (stereo not shown) [Veloutone] | 47 cSt
26 | CCCCCCCCCCCCCCCC [Hexadecane] | 18 cSt
27 | CC(=O)CCc1ccc(O)cc1 [Raspberry Ketone] | 33 cSt
28 | CC1=CC=C(C(C)C)CC1 [alpha-Terpinene] | 42 cSt
